Read-outs that look alike come from different tables or passages of the source. Bridge positions count the residues as written; N and C are the ends. Square brackets hold non-standard residues; d marks the D form. Peptide text beside a SMILES is read from it.
Tests used:
D. immitis iPGM = D. immitis iPGM (Dirofilaria immitis, UniProt F4ZE01); test: biochemical
E. coli iPGM [1] = molecular target: T1, E. coli iPGM (Escherichia coli, UniProt P37689); test: biochemical; details: […]
B. malayi iPGM = molecular target: T2, B. malayi iPGM (Brugia malayi, UniProt Q4VWF8); test: biochemical; format: binding
T2 sequence (Q4VWF8 1-515): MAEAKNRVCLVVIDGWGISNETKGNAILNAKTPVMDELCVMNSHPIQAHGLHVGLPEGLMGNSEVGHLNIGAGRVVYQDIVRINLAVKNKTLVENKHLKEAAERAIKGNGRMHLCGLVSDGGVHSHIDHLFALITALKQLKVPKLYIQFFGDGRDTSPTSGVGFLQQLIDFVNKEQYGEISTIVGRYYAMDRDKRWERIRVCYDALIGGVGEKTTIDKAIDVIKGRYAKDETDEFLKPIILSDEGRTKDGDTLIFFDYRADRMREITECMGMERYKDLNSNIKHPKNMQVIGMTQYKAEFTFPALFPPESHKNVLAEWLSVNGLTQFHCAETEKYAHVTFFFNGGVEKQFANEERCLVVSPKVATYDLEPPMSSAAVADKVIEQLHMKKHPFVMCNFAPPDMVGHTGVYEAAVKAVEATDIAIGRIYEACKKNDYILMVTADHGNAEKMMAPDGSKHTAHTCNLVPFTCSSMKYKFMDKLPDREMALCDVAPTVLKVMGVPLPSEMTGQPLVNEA

E. coli iPGM [2] = molecular target: T1, E. coli iPGM; test: SPR binding kinetics and saturation binding, biotinylated iPGM on Biotin CAPture chip (Biacore S200); details: for koff / kon: LoQ = limit of quantitation
C. elegans iPGM = C. elegans iPGM (Caenorhabditis elegans, UniProt G5EFZ1); test: as above
[3] = SPR, 25 °C, global fit to 1:1 binding model
[4] = Supplementary Table 5, SPR, E.c. iPGM

Structure (SMILES): CC(C)C[C@H](NC(=O)[C@H](Cc1ccc(O)cc1)NC(=O)[C@@H]1CSCC(=O)N[C@H](Cc2ccc(O)cc2)C(=O)N[C@@H](CC(=O)O)C(=O)N[C@@H](Cc2ccc(O)cc2)C(=O)N2CCC[C@H]2C(=O)NCC(=O)N[C@@H](CC(=O)O)C(=O)N[C@@H](Cc2ccc(O)cc2)C(=O)N1)C(=O)N[C@@H](Cc1ccc(O)cc1)C(=O)NCC(=O)NCC(=O)N[C@@H](Cc1c[nH]cn1)C(N)=O [Ce-2 T13G, C14H]
- IC50 (D. immitis iPGM; Di iPGM Ave IC50 (M)): 1.12e-07 M
- IC50 (E. coli iPGM [1]): 12700 nM

Structure (SMILES): COc1ccc(C[C@@H]2NC(=O)CSC[C@@H](C(=O)N[C@@H](Cc3ccc(O)cc3)C(=O)N[C@@H](CC(C)C)C(=O)N[C@@H](Cc3ccc(O)cc3)C(N)=O)NC(=O)[C@H](Cc3ccc(O)cc3)NC(=O)[C@H](CC(=O)O)NC(=O)CNC(=O)[C@@H]3CCCN3C(=O)[C@H](Cc3ccc(O)cc3)NC(=O)[C@H](CC(=O)O)NC2=O)cc1 [Ce-2d Y1(4OMe)F]
- IC50 (D. immitis iPGM; Di iPGM Ave IC50 (M)): 1.87e-08 M
- IC50 (E. coli iPGM [1]): 20000 nM

Structure (SMILES): CC(C)C[C@H](NC(=O)[C@H](Cc1ccc(O)cc1)NC(=O)[C@@H]1CSCC(=O)N[C@H](Cc2ccc(O)cc2)C(=O)N[C@@H](CC(=O)O)C(=O)N[C@@H](Cc2ccc(O)cc2)C(=O)N2CCC[C@H]2C(=O)NCC(=O)N[C@@H](CC(=O)O)C(=O)N[C@@H](Cc2ccc(O)cc2)C(=O)N1)C(=O)N[C@@H](Cc1ccc(O)cc1)C(=O)NCC(=O)N[C@@H](CO)C(=O)N[C@@H](CS)C(N)=O [Ce-2 Thr13Ser]
- koff (B. malayi iPGM): 7.84e-05 s⁻¹
- kon (B. malayi iPGM): 1.47e+06 M⁻¹ s⁻¹
- Kd (B. malayi iPGM; KD, Supplementary Table 5, SPR, B.m. iPGM, unit inferred): 0.0853 nM
- koff (B. malayi iPGM; [3]): 7.8e-05 s⁻¹
- kon (B. malayi iPGM; [3]): 1.6e+06 M⁻¹ s⁻¹
- koff (E. coli iPGM [2]; SPR, 25 °C, global fit to 1:1 binding model, read-out: koff): 0.00033 s⁻¹
- kon (E. coli iPGM [2]; SPR, 25 °C, global fit to 1:1 binding model, read-out: kon): 240000 M⁻¹ s⁻¹
- koff (E. coli iPGM [2]; [4]): 0.000333 s⁻¹
- kon (E. coli iPGM [2]; [4]): 236000 M⁻¹ s⁻¹
- Kd (E. coli iPGM [2]; Supplementary Table 5, SPR, E.c. iPGM, unit inferred): 1.31 nM
- Kd (C. elegans iPGM): 0.0287 nM
- koff (C. elegans iPGM): 7.83e-05 s⁻¹
- kon (C. elegans iPGM): 2.86e+06 M⁻¹ s⁻¹
- koff (C. elegans iPGM; [3]): 0.00017 s⁻¹
- kon (C. elegans iPGM; [3]): 2.9e+06 M⁻¹ s⁻¹
- IC50 (D. immitis iPGM; IC50 (M)): 2.56e-09 M

Structure (SMILES): CC(C)C[C@H](NC(=O)[C@H](Cc1ccccc1)NC(=O)[C@@H]1CSCC(=O)N[C@H](Cc2ccc(O)cc2)C(=O)N[C@@H](CC(=O)O)C(=O)N[C@@H](Cc2ccc(O)cc2)C(=O)N2CCC[C@H]2C(=O)NCC(=O)N[C@@H](CC(=O)O)C(=O)N[C@@H](Cc2ccc(O)cc2)C(=O)N1)C(=O)N[C@@H](Cc1ccc(O)cc1)C(=O)NCC(=O)N[C@H](C(=O)N[C@@H](CS)C(N)=O)[C@@H](C)O [Ce-2 Y9F] ({CH2CO}-[dY]DYPGDYCFLYGTC-NH2; thioether N-8)
- IC50 (D. immitis iPGM; Di iPGM Ave IC50 (M)): 2.69e-09 M
- IC50 (D. immitis iPGM; IC50 (M)): 2.79e-09 M
- IC50 (E. coli iPGM [1]): 815 nM

Structure (SMILES): CC(C)C[C@H](NC(=O)[C@H](Cc1ccc(O)cc1)NC(=O)[C@@H]1CSCC(=O)N[C@H](Cc2ccc(O)cc2)C(=O)N[C@@H](CC(=O)O)C(=O)N[C@@H](Cc2ccc(O)cc2)C(=O)N2CCC[C@H]2C(=O)NCC(=O)N[C@@H](CC(=O)O)C(=O)N[C@@H](Cc2ccccc2)C(=O)N1)C(=O)N[C@@H](Cc1ccc(O)cc1)C(=O)NCC(=O)N[C@H](C(=O)N[C@@H](CS)C(N)=O)[C@@H](C)O [Ce-2 Y7F]
- IC50 (D. immitis iPGM; Di iPGM Ave IC50 (M)): 1.73e-09 M
- IC50 (D. immitis iPGM; IC50 (M)): 1.78e-09 M
- IC50 (E. coli iPGM [1]): 1170 nM

Structure (SMILES): CC[C@H](C)[C@@H]1NC(=O)[C@H](Cc2ccc(O)cc2)NC(=O)[C@H](CC(=O)O)NC(=O)[C@@H](Cc2ccc(O)cc2)NC(=O)CSC[C@@H](C(=O)N[C@@H](Cc2ccc(O)cc2)C(=O)N[C@@H](CC(C)C)C(=O)N[C@@H](Cc2ccc(O)cc2)C(N)=O)NC(=O)[C@H](Cc2ccc(O)cc2)NC(=O)[C@H](CC(=O)O)NC(=O)CNC1=O [Ce-2d P4I]
- IC50 (D. immitis iPGM; Di iPGM Ave IC50 (M)): 2.21e-07 M
- IC50 (E. coli iPGM [1]): 21900 nM

Structure (SMILES): CC(C)C[C@H](NC(=O)[C@H](Cc1ccc(O)cc1)NC(=O)[C@@H]1CSCC(=O)N[C@H](Cc2ccc(O)cc2)C(=O)N[C@@H](CCC(N)=O)C(=O)N[C@@H](Cc2ccc(O)cc2)C(=O)N2CCC[C@H]2C(=O)NCC(=O)N[C@@H](CC(=O)O)C(=O)N[C@@H](Cc2ccc(O)cc2)C(=O)N1)C(=O)N[C@@H](Cc1ccc(O)cc1)C(N)=O [Ce-2d D2Q]
- IC50 (D. immitis iPGM; Di iPGM Ave IC50 (M)): 3.31e-07 M
- IC50 (E. coli iPGM [1]): 8040 nM

Structure (SMILES): CC(C)C[C@H](NC(=O)[C@H](Cc1ccccc1)NC(=O)[C@@H]1CSCC(=O)N[C@H](Cc2ccc(O)cc2)C(=O)N[C@@H](CC(=O)O)C(=O)N[C@@H](Cc2ccc(O)cc2)C(=O)N2CCC[C@H]2C(=O)NCC(=O)N[C@@H](CC(=O)O)C(=O)N[C@@H](Cc2ccccc2)C(=O)N1)C(=O)N[C@@H](Cc1ccc(O)cc1)C(=O)NCC(=O)N[C@H](C(=O)N[C@@H](CS)C(N)=O)[C@@H](C)O [Ce-2 Y7F, Y9F] ({CH2CO}-[dY]DYPGDFCFLYGTC-NH2; thioether N-8)
- IC50 (D. immitis iPGM; Di iPGM Ave IC50 (M)): 2.07e-08 M
- IC50 (D. immitis iPGM; IC50 (M)): 2.03e-08 M
- IC50 (E. coli iPGM [1]): 4460 nM
